Experimental data published in US9389237B2, “Methods for inhibiting the development of Huntington's disease” (priority 2003, dated 2016).
“And” between values parts separate entries of the source, which are not always exact repeats. Equal values may be shown once. “Also recorded” adds a separate entry of the source.

Experiments:
[1] = Serum hormone level (ES/TT) in treated HD mice; conditions: subcutaneous injection as emulsion with Freund's incomplete adjuvant
Protocol: Hormone tests of serum were performed to verify the blood levels of estradiol or testosterone. The mice (controls=no treatment) were tested against liter mates receiving either (E1 and E3 100 ug/ml weekly) or (E2 and E4 200 ug/ml injection weekly).
Blood specimens for estradiol assay using Elisa methodology was obtained during the study.
Stock solution of estradiol and testosterone were diluted with water and mixed with Freund's incomplete adjuvant. This was mixed continuously for 1 minute and either 100 ul (E1 and E3) or 200 ul (E2 and E4) were injected subcutaneously. […] Animals in the E1 and E3 groups were targeted to receive 100-300 pg/ml estrogen and groups E2 and E4 were targeted to receive 400-800 pg/ml of estrogen. Animals in T1 and T2 grouping were targeted to receive 100 pg/ml testosterone.

[2] = system: HD transgenic mice (HDexon 1 + 159-161 CAG repeat units); assay: Brain weight at week 12 of treated HD transgenic mice; format: in vivo; conditions: for Brain weight at week 12: single animals
Text: 30 HD mice were obtained from the Jackson Laboratory, Bar Harbor, Me. The group consists of a 15 hemizygous female strain #2810 and 15 hemizygous males strain #2810 (containing the transgene HDexon 1+159-161 CAG repeat units). These mice were grouped as follows: • All mice received ear clips as identification, noting hair color. • 1-15 […] receiving no treatment, […], 9, 10 and 12 were grouped as E2. […] 20, 21, 22, 26 were grouped as E3, 23, 24, 25, 27 were grouped as E4. 28 and 29 were grouped as T2, receiving 100 ug/ml testosterone.
After euthanized, all brains of all mice were surgically removed and placed in a solution of formaldehyde and weighed on a scale. The weights were recorded.

[3] = system: HD transgenic mice (HDexon 1 + 159-161 CAG repeat units); assay: Beam walking (raised beam) of treated HD transgenic mice; format: in vivo; conditions: for ability to transverse the ½ in beam in the allotted time / improvement over the course of the study (continued ability to cross the ½ in^2 beam after controls were unable): HD mice, 150 seconds allotted; for ability to transverse the ½ in beam in the allotted time: versus untreated control liter mates; for improvement over the course of the study (continued ability to cross the ½ in^2 beam after controls were unable): two weeks after control animals failed; for time after untreated liter mates were unable to perform the trained task, with retained cognitive decision making and motor function: HD transgenic mice, beam task
Text: 30 HD mice were obtained from the Jackson Laboratory, Bar Harbor, Me. The group consists of a 15 hemizygous female strain #2810 and 15 hemizygous males strain #2810 (containing the transgene HDexon 1+159-161 CAG repeat units). These mice were grouped as follows: • All mice received ear clips as identification, noting hair color. • 1-15 were males and 16-29 were females mouse #30 arrived dead. • Male mice: 1-4 were control animals receiving no treatment, 5,6,7,11 were grouped as E1 8, 9, 10 and 12 were grouped as E2. 13, 14 and 15 were grouped as T1, receiving 100 ug/ml testosterone weekly. • Female mice: 16-19 were control animals receiving no treatment. 20, 21, 22, 26 were grouped as E3, 23, 24, 25, 27 were grouped as E4. 28 and 29 were grouped as T2, receiving 100 ug/ml testosterone.
Utilizing the raised beam, mice were assessed for their ability to transverse a graded series of narrow beams to reach a safety platform. The beams consisted of long strips of wood with a 12 mm or 5 mm square cross section. The beams were placed horizontally, 50 cm above each bench surface, with one end mounted on a narrow support and the other end attached to an enclosed box to which the animal could escape. Two inches of dense foam was placed under the test area to protect the animals from fall injury. Training took place in a 3 or 4 day period, where the mice were trained two to four times in a four day period using the 12 mm square beam. Once they were trained to walk the beam (i.e., traversing the 12 mm square beam in less than 20 seconds), they received two consecutive trails on each of the square beam and each of the round beams, in each case progressing from the widest to the narrowest beam. Mice were afforded 150 seconds to traverse each beam. The number of times the mice slipped off of the beam was recorded for each trial. The mean score was used for each trial.

[4] = system: HD transgenic mice (HDexon 1 + 159-161 CAG repeat units); assay: Body weight of hormone treated HD transgenic mice; format: in vivo; conditions: for Last wt Week 12 / Peak wt Weeks 8/9 / % change in weight / Change in Grams / % change: single animals; for Average % change: group average weight loss; for % change in weight / Change in Grams / % change: peak to week 12
Text: 30 HD mice were obtained from the Jackson Laboratory, Bar Harbor, Me. The group consists of a 15 hemizygous female strain #2810 and 15 hemizygous males strain #2810 (containing the transgene HDexon 1+159-161 CAG repeat units). These mice were grouped as follows: • All mice received ear clips as identification, noting hair color. • 1-15 were males and 16-29 were females mouse #30 arrived dead. • Male mice: 1-4 were control animals receiving no treatment, 5,6,7,11 were grouped as E1 8, 9, 10 and 12 were grouped as E2. […] 28 and 29 were grouped as T2, receiving 100 ug/ml testosterone.
Body Weight: All animals were weighed on a scale weekly throughout the study. All weights were recorded.

[5] = system: mutant form of huntingtin; assay: In vitro estradiol binding study, overall conclusion; conditions: conclusion from Table 2
Protocol: These pure proteins were then used in the following binding protocol. Oestradiol-6-(0-carboxymethyl)oximino-(2-[125I] iodohistamine was used as the estradiol source. Buffer B preferably comprises: 250 mM tris, 150 mM NaCl, and a Dextran Charcoal solution comprising 0.05% Dextran coated charcoal in buffer B (sigma Cat#6197). About 0.5 ml of buffer B was preferably used per reaction. A total of 5 ml of Buffer B was aliquoted into a glass borosilicate tube (Fisher Cat#14-961-26) and 10 μL of Oestradiol (1125) was added containing approximately 2,000,000 cpm. About 0.5 ml of this solution was then distributed into eight labeled glass tubes (cat #14-961-260). The entire tube #1's 500 μL was counted. Tube #2 through #8 were treated in the following manner:
Tubes #2-#8 were incubated for 1 hour at room temperature, placed on ice for ten minutes, and 200 μL of the Dextran charcoal solution in buffer B was added. These tubes were then placed on ice ten minutes and then centrifuged 15 minutes at 2200 rpm in a Sorvall RC-3 refrigerated centrifuge with swinging bucket rotor (Sorvall HL-8) at 4 degrees. The entire 700 μL supernatant was removed and counted using Genesys multi-well gamma counter (Laboratories Technology, Inc.). The results are summarized below: […]

[6] = female HD mice, group E1, 100 ul ES dose weekly
[7] = female HD mice, group E2, 200 ul ES dose weekly
[8] = male HD mice, group E3, 100 ul ES dose weekly
[9] = male HD mice, group E4, 200 ul ES dose weekly
[10] = female HD mice, group E1, 100 ul ES dose weekly, target blood level 100-300 pg/ml
[11] = female HD mice, group E2, 200 ul ES dose weekly, target blood level 400-800 pg/ml
[12] = male HD mice, group E3, 100 ul ES dose weekly, target blood level 100-300 pg/ml
[13] = male HD mice, group E4, 200 ul ES dose weekly, target blood level 400-800 pg/ml
[14] = female HD mice, group T1, 100 ul T dose weekly
[15] = male HD mice, group T2, 100 ul T dose weekly
[16] = female HD mice, group T1, 100 ul T dose weekly, target blood level 50-100 pg/ml
[17] = male HD mice, group T2, 100 ul T dose weekly, target blood level 50-100 pg/ml

In the case of CC12CCC3c4ccc(O)cc4CCC3C1CC[C@@H]2OC(=O)CCC1CCCC1 (stereo partly drawn) [estradiol cypionate, estradiol 17-cyclopentanepropionate], the release after injection [1] is reported as “continuous over six days”, the “Brain weight at week 12” value [2, 6] is reported as 0.33 g and 0.36 g and 0.34 g and 0.30 g and the “Brain weight at week 12” value [2, 7] is reported as 0.33 g and 0.37 g (2×). The “Brain weight at week 12” value [2, 8] was 0.37 g (2×) and 0.40 g (2×), the “Brain weight at week 12” value [2, 9] was 0.39 g and 0.34 g and 0.35 g and the “increase in brain weight” value ([2]; on average, lower level (100-300 Pg/ml) of estrogen treatment versus untreated) was at most 10%. For the same compound, the “ability to transverse the ½ in beam in the allotted time” value [3] was “significant improvement; also recorded: able to complete the traversing of the beam in the allotted time; also recorded: significant increase in their ability to cross the beam within the time allotment”, the “improvement over the course of the study (continued ability to cross the ½ in^2 beam after controls were unable)” value [3] was 16.6% and the “time after untreated liter mates were unable to perform the trained task, with retained cognitive decision making and motor function” value [3] was 14 days. The “Last wt Week 12” value [4, 10] was 21.7 g and 16.9 g and 18.9 g and 18.2 g, the “Peak wt Weeks 8/9” value [4, 10] was 24.0 g and 19.9 g and 21.2 g and 25.0 g and the Average % change ([4]; female HD mice, group E1, 100 ul ES dose weekly, controls 21.7%) was 15.5%. The “% change in weight” value [4, 6] was −9.0% and −15.0% and −10.8% and −27.2%, the “Change in Grams” value [4, 6] was −2.3 g (2×) and −3.0 g and −6.8 g and the “Last wt Week 12” value [4, 11] was 20.5 g and 17.6 g and 13.5 g and 20.7 g. The “Peak wt Weeks 8/9” value [4, 11] was 21.5 g and 21.8 g and 19.8 g and 22.5 g, the Average % change ([4]; female HD mice, group E2, 200 ul ES dose weekly, controls 21.7%) was 15.7% and the “% change in weight” value [4, 7] was −4.6% and −19.2% and −31.0% and −8.0%. The “Change in Grams” value [4, 7] was -1.0 g and -4.2 g and -6.3 g and -1.8 g, the “Last wt Week 12” value [4, 12] was 19.6 g and 22.6 g and 21.7 g and 23.5 g and the “Peak wt Weeks 8/9” value [4, 12] was 26.2 g and 26.7 g and 24.8 g and 26.4 g. For the same compound, the “Average % change” value ([4]; male HD mice, group E3, 100 ul ES dose weekly, controls 27.2%) was 15.9%, the “% change” value [4, 8] was −25.0% and −15.3% and −12.5% and −10.9% and the “Change in Grams” value [4, 8] was -6.6 g and -4.1 g and -3.1 g and -2.9 g. The “Last wt Week 12” value [4, 13] was 22.9 g and 19.6 g and 20.2 g and 19.4 g, the “Peak wt Weeks 8/9” value [4, 13] was 26.2 g and 24.6 g and 23.7 g and 22.1 g and the “Average % change” value ([4]; male HD mice, group E4, 200 ul ES dose weekly, controls 27.2%) was 14.9%. The “% change” value [4, 9] was −12.5% and −20.3% and −14.7% and −12.2% and the “Change in Grams” value [4, 9] was -3.3 g and -5.0 g and -3.5 g and -2.7 g.
For C[C@]12CC[C@@H]3c4ccc(O)cc4CC[C@H]3[C@@H]1CC[C@@H]2O [estradiol, 1,3,5(10)-estratriene-3,17beta-diol], the “affinity for mutant huntingtin” value [5] was “an affinity for estradiol has been demonstrated”.
For CC12CCC(=O)C=C1CCC1[C@@H]2CCC2(C)[C@@H](OC(=O)CCC3CCCC3)CC[C@@H]12 (stereo partly drawn) [testosterone cypionate, androst-4-en-3-one,17-(3-cyclopentyl-1-oxopropoxy)-, (17β)-], the “Brain weight at week 12” value [2, 14] was 0.31 g, the “Brain weight at week 12” value [2, 15] was 0.31 g and 0.37 g and 0.33 g and the “ability to transverse the ½ in beam in the allotted time” value [3] was “significant improvement”. The “improvement over the course of the study (continued ability to cross the ½ in^2 beam after controls were unable)” value [3] was 16.6%, the “time after untreated liter mates were unable to perform the trained task, with retained cognitive decision making and motor function” value [3] was 14 days and the “Last wt Week 12” value [4, 16] was 17.4 g and 14.5 g. The “Peak wt Weeks 8/9” value [4, 16] was 27.6 g and 21.6 g, the Average % change ([4]; female HD mice, group T1, 100 ul T dose weekly, controls 21.7%) was 34.8% and the “% change in weight” value [4, 14] was −36.9% and −32.8%. For the same compound, the “Change in Grams” value [4, 14] was -10.2 g and -7.1 g, the “Last wt Week 12” value [4, 17] was 17.1 g and 25.1 g and 19.0 g and the “Peak wt Weeks 8/9” value [4, 17] was 23.4 g and 28.0 g and 27.0 g. The “Average % change” value ([4]; male HD mice, group T2, 100 ul T dose weekly, controls 27.2%) was 22.2%, the “% change” value [4, 15] was −26.9% and −10.3% and −29.6% and the “Change in Grams” value [4, 15] was -6.3 g and -2.9 g and -8.0 g.
